From patent US20130216600A1, “ANTIMICROBIAL NANOPARTICLE CONJUGATES” (priority 2010, published 2013)
“And” between values parts separate entries of the source, which are not always exact repeats. Equal entries are not always repeated.

How the values were obtained:
[1] = test system: Pseudomonas aeruginosa ATCC 15442; experiment: MIC of DexOx-antibiotic conjugates and free drugs; format: cell-based; settings: P. aeruginosa
Experimental: (§1) To evaluate the antibacterial activity of DexOx-Amp, DexOx-Van and DexOx-Gen, the minimal inhibitory concentration (MIC) was determined for each of the conjugates and compared with each of MIC values obtained for Amp, Van and Gen. The tests were performed against 5×10^5 cells/mL (in 0.2 mL of medium) of Staphylococcus aureus ATCC 6538 (S. aureus), Pseudomonas aeruginosa ATCC 15442 (P. aeruginosa), Klebsiella pneumoniae ATCC 10031 (K. pneumoniae) or Escherichia coli ATCC 25922 (E. coli), with concentrations of the drug between 0 and 120 μg/mL. The microorganisms were incubated at 37° C. for 18 h, and the absorbance at 600 nm was monitored every 30 min.

[2] = test system: Klebsiella pneumoniae ATCC 10031; experiment: MIC of DexOx-antibiotic conjugates and free drugs; format: cell-based; settings: K. pneumoniae
Experimental: as §1

[3] = test system: Candida albicans; experiment: MIC of AmB and DexOx-AmB conjugates (NCCLS M27A2E); format: cell-based; settings: 48 hours
Description: The “minimal inhibitory concentration” or “MIC” is defined as the lowest drug concentration that results in complete inhibition of visible growth of a microorganism.

[4] = test system: C. albicans; experiment: Spectrum of antifungal activity, MIC after 8 hours; format: cell-based; settings: formulation
[5] = test system: C. krusei; experiment: Spectrum of antifungal activity, MIC after 8 hours; format: cell-based; settings: formulation
Experimental: (§2) In order to determine the spectrum of antifungal activity of the nanoparticles functionalized with amphotericin B, they were tested against four strains of Candida, namely: C parapsilosis, C krusei, C glabrata, and C tropicalis. The MIC values were determined after 8 hours of incubation with AmB, DexOx-AmB conjugate, unconjugated silica nanoparticles, and silica nanoparticles functionalized with DexOx-AmB.

[6] = test system: C. parapsilosis; experiment: Spectrum of antifungal activity, MIC after 8 hours; format: cell-based; settings: formulation
Experimental: as §2

[7] = test system: C. glabrata; experiment: Spectrum of antifungal activity, MIC after 8 hours; format: cell-based; settings: formulation
Experimental: as §2

[8] = test system: C. tropicalis; experiment: Spectrum of antifungal activity, MIC after 8 hours; format: cell-based; settings: formulation
Experimental: as §2

[9] = The Merck Index 1989; cited from earlier work

CC1(C)S[C@@H]2[C@H](NC(=O)[C@H](N)c3ccccc3)C(=O)N2[C@H]1C(=O)O [Amp, ampicillin]
MIC ([1]; Pseudomonas aeruginosa, ATCC15442, free drug): > 120 µg/mL
MIC ([2]; Klebsiella pneumoniae, ATCC10031, free drug): 20 to 40 µg/mL

amphotericin B [AmB]
MIC (μg of conjugate/ml) ([3]; 30° C., n=6): 0.9 ± 0.2 μg of conjugate/ml
MIC ([3]; unconjugated (soluble) AmB): 0.9 µg/mL and 0.9 ± 0.2 µg/mL
Minimum Inhibitory Concentration (MIC) [4]: 0.3
Minimum Inhibitory Concentration (MIC) [5]: 0.1
Minimum Inhibitory Concentration (MIC) [6]: 0.3
Minimum Inhibitory Concentration (MIC) [7]: 0.03
Minimum Inhibitory Concentration (MIC) [8]: 0.08
water solubility limit [9]: 100 µg/mL

gentamicin
MIC free drug (μg/mL) [1]: MIC < 2 μg/mL
MIC free drug (μg/mL) [2]: MIC < 2 μg/mL
